Results as given in US20110318302A1, “Cancer Treatment” (priority 2009, published 2011).

Test system: human renal cancer cell line Caki-1
Test: Caki-1 tumour mouse model, single and combination therapy (tumour volume)
Assay type: in vivo, BALB/c nude mice
Settings: single agent; s.c. Caki-1 tumours; F8-IL2 20 μg i.v. 3x every 3rd day; sorafenib or sunitinib 60 mg/kg p.o. 7 days; huIFNa2b/muIFNa1 10.000 IU/10.000 IU s.c. 3x; two treatment cycles (days 11-17, 37-43)
Description: For the combination therapy, the human renal cancer cell line Caki-1 (clear cell carcinoma from kidney; ATCC) was cultured in DMEM containing 10% fetal bovine serum and 2 mM L-glutamine (all Invitrogen).
Female BALE/c nude mice were obtained from Charles River Laboratories. All experiments were performed according to Swiss regulations and under a project license granted by the Veterinäramt des Kantons Zürich.
Sorafenib tosylate (Nexavar, Bayer Schering) and sunitinib malate (Sutent, Pfizer) were obtained in the commercially available forms of 200 mg tablets and 50 mg capsules, respectively. The total tablet weight of sorafenib is 350 mg and an index of 1.75 was used to keep the molarity in terms of active compound. Sorafenib tablets were pulverized with mortar and pestle and kept from light in a desiccator. For in vivo administration, pulverized sorafenib was dissolved in a solution of CremophorEL:Ethanol:H2O (12.5%:12.5%:75%). The content of a sunitinib malate capsule was 167 mg and a correction factor of 3.3 was used for molarity adjustment. […]
Mice were monitored daily and tumor volumes were measured three times per week with a digital caliper using the following formula: volume=length×width^2×0.5. […] Tumor volumes are expressed as mean±SE (standard error). […]

CNC(=O)c1cc(Oc2ccc(NC(=O)Nc3ccc(Cl)c(C(F)(F)F)c3)cc2)ccn1 [Sorafenib]
tumour burden (tumour volume) versus PBS control: little or no effect on tumour burden
